Results as given in patent US20130079287A1, “CAFFEOYLALPHANEOENDORPHIN PEPTIDE DERIVATIVE AND USE THEREOF AS ANTI-ITCHING AND ANTI-ATOPIC AGENTS” (priority 2011, published 2013).
“And” between values parts separate entries of the source, which are not always exact repeats. Equal values may be shown once. Marks after values point to notes of the source that are not given here. Where a SMILES comes first, the peptide text is derived from it. Where no end group is shown, it is not given here. The star is where a group is joined. Caffeoyl = O=C(/C=C/c1ccc(O)c(O)c1)*

Key:
NZW Rabbit skins = experiment: Skin irritation safety test (topical toxicity); format: in vivo, New Zealand White-Rabbit; set-up: key to Erythema & Eschar score: 0: Absolutely no erythema; 1: Very light erythema (barely identifiable level with the naked eye); 2: Obvious erythema; 3: A little serious erythema; 4: Serious erythema (carrot color) and crust formation; key to clinical signs: —: Normal; details: for clinical signs: female rabbit; for Edema score, Average / Edema score, Sum / Erythema & Eschar score, Average / Erythema & Eschar score, Sum: 6 animals
Method: In order to confirm the safety of caffeoyl peptide derivative according to the present invention to a human body skin when applying besides a skin that is an expected first human body application method, a topical toxicity skin irritation safety that is pre-clinical test method of pharmaceuticals was verified. The safety verification was performed by asking to Korea Research Institute of Chemical Technology that is an approved GLP Certificate Authority; the maximum application concentration range to skin irritation during topical toxicity was set at 10 mg/ml concentration, and then it was tested that irritant to a skin at the above concentration was not existed. For the above test, at least 6 of young and healthy white rabbits (New Zealand White-Rabbit, 2.0˜3.0 kg) were used. After selecting only healthy rabbits through observing a general symptom every day for 5 days during an accommodating period from an obtaining day, hairs of the abdominal regions of the selected rabbits was shaved away and then 6 rabbits with normal skins were used for test. […] An keeping environment was simply as follows: the test was performed in a rabbit keeping room in the institute by setting the temperature of 22° C., the relative humidity of 50%, a number of ventilation of 10˜15 number/hr, lighting of 12 h lights-on/12 h lights-off (08:00˜20:00), an intensity of illumination of 150˜300 Lux. For monitoring of keeping environment, whole humidity in an animal room was measured by an auto-measurer and environment conditions, such as, an intensity of illumination were regularly measured during a test period. As a result of environment measurement in an animal room, there was no change to affect to the test. The animals were kept individually in a stainless keeping box (380×480×300 mm, JungDo Industry) during accommodation, inspection, and observation periods. Feeds that was feeds for Rabbits, experiment animals, supplied from Cargillagripurina Cor. (Chonbuk, Gunsan-si Soyong dong 56-4) was freely taken by the animals, and water that was a filtered water through UV irradiation was freely taken by using a water bottle. In order to confirm the contaminant in the feeds and water, the contaminant of feeds was confirmed by receiving the feed report card according to regular test of manufacturer from a feeds supplier, and the contaminant of water was confirmed through the regular test according to applicable standard working water procedure (SOPs) of the institute.
The caffeoylalphaneoendorphin peptide derivative that was a test material prepared from Example 1 was dissolved in a concentration of 10 mg/ml (10,000 ppm), and then 0.5 ml per each animal was used by using the following method. […] The abraded skins were made to have a scratch without blood by using a needle end of syringe so that the horny layer of the skin was damaged, but the corium of the skin was not damaged. After the test materials were applied to one site of abraded skins and one site of intact skins, the sites were occlusive-patched with non-irritative tape and Coban for 24 hours. Control regions were applied with sterilized gauze wetted with sterilized distilled water by using the same method as the above (see FIG. 4).
In order to observe as to whether skin irritation was occurred, a change of general symptoms and as to whether animals were killed were observed during 72 hours after completing the application of test materials as the observation of general symptoms. In addition, the body weights per individual were measured immediately before applying the test materials and at 72 hours after applying the test materials. […] The evaluation of skin response and decision of irritant were performed based on the evaluation table of skin response as disclosed in the following Table 1. The decision of irritant content to the result was performed according to a calculation method of P.I.I. (Primary Irritation Index) by Draize, which is well used, generally (see Table 2).

[1] = system: peptidase derived from the cell disruption solution of fibroblast; experiment: Stability to peptidase, cell disruption solution of fibroblast; details: 10,000 ppm, 37° C., 6 hours
Method: (§1) After culturing at 37° C. for 6 hours, the residual contents were analyzed, and the existing contents were compared and evaluated on a percentage (%) to the initial existing contents.

[2] = system: peptidase derived from the cell disruption solution of keratinocyte; experiment: Stability to peptidase, cell disruption solution of keratinocyte; details: 10,000 ppm, 37° C., 6 hours
Method: as §1

[3] = Physical stability test under alternating temperature; format: physicochemical; details: alternating temperature 4/20/40° C. at 8 h interval, up to 60 days, naked eye
Source text: The physical stability under the condition of severe alternating temperature is an essential factor in the terms of the product property to be exposed to various external atmospheres in the case of cosmetics. The caffeoylalphaneoendorphin peptide derivative prepared from Example 1 has an increased stability to oxidation rather than that of caffeic acid in an aqueous solution. In order to confirm the increased physical stability, it was stored under the condition of alternating temperature for certain period time, and then its degradation degree was measured.
Firstly, 10,000 ppm concentration of caffeoylalphaneoendorphin peptide derivative aqueous solution was placed under the conditions of alternating temperatures, that is, low temperature (4° C.), room temperature (20° C.), and high temperature (40° C.) that were repeated at an interval of 8 hours, and then the physical stability was measured by the naked eye and HPLC Analysis for 30 days, 60 days, and 90 days.

[4] = test sites, abraded skin, 24 hour
[5] = test sites, abraded skin, 72 hour
[6] = test sites, intact skin, 24 hour
[7] = test sites, intact skin, 72 hour

CC(C)C[C@H](NC(=O)[C@H](Cc1ccccc1)NC(=O)CNC(=O)CNC(=O)[C@H](Cc1ccc(O)cc1)NC(=O)/C=C/c1ccc(O)c(O)c1)C(=O)N[C@@H](CCCNC(=N)N)C(=O)N[C@@H](CCCCN)C(=O)N[C@@H](Cc1ccc(O)cc1)C(=O)N1CCC[C@H]1C(=O)N[C@@H](CCCCN)C(=O)O [Caffeoyl (R1, R2, and R5 are hydrogen, and R3 and R4 are hydroxy)-alphaneoendorphin Peptide Derivative] (Caffeoyl-YGGFLRKYPK-OH)
Body weights (NZW Rabbit skins; 0 hours (immediately before applying), per animal): 2237.2 g and 2511.9 g and 2684.9 g and 2408.4 g and 2478.1 g and 2347.3 g
changes of body weights of all animals (NZW Rabbit skins; 0 to 72 hours): normally increased
Body weight gains (NZW Rabbit skins; 0 to 72 hours, per animal): 76.2 g and 119.5 g and 103.1 g and 88.3 g and 133.6 g and 107.1 g
toxicity in skin irritation test of topical toxicity (NZW Rabbit skins; 10 mg/ml): no toxicity
Irritant Evaluation by P.I.I. (NZW Rabbit skins; 10 mg/ml applied over NZW Rabbit skins): none irritant
clinical signs (NZW Rabbit skins; 10 mg/ml, 0.5 ml per animal, 0 hours after application, per animal): —
clinical signs (NZW Rabbit skins; 10 mg/ml, 0.5 ml per animal, 24 hours after application, per animal): —
clinical signs (NZW Rabbit skins; 10 mg/ml, 0.5 ml per animal, 48 hours after application, per animal): —
clinical signs (NZW Rabbit skins; 10 mg/ml, 0.5 ml per animal, 72 hours after application, per animal): —
Mortality (Number of dead animals/Number of total animals) (NZW Rabbit skins; 10 mg/ml, 0.5 ml per animal, female rabbits, 72 hours): 0/6^a
Body weights (NZW Rabbit skins; 72 hours after application, per animal): 2313.4 g and 2631.4 g and 2788.0 g and 2496.7 g and 2611.7 g and 2454.4 g
death or unusual symptoms related to the application (NZW Rabbit skins; during the test period): no death or unusual symptoms
P.I.I (Primary Irritation Index) (NZW Rabbit skins; test sites, 10 mg/ml, (Sum or mean at 24 and 72 hrs)/4): 0.0
Edema score, Average (NZW Rabbit skins; [4]): 0
Edema score, Sum (NZW Rabbit skins; [4]): 0
Erythema & Eschar score, Average (NZW Rabbit skins; [4]): 0
Erythema & Eschar score, Sum (NZW Rabbit skins; [4]): 0
Erythema & Eschar score (NZW Rabbit skins; test sites, abraded skin, 24 hour, per animal): 0
Edema score, Average (NZW Rabbit skins; [5]): 0
Edema score, Sum (NZW Rabbit skins; [5]): 0
Erythema & Eschar score, Average (NZW Rabbit skins; [5]): 0
Erythema & Eschar score, Sum (NZW Rabbit skins; [5]): 0
Erythema & Eschar score (NZW Rabbit skins; test sites, abraded skin, 72 hour, per animal): 0
Sum of Averages (NZW Rabbit skins; test sites, erythema & eschar and edema, 24 and 72 hour): 0.0
Edema score, Average (NZW Rabbit skins; [6]): 0
Edema score, Sum (NZW Rabbit skins; [6]): 0
Erythema & Eschar score, Average (NZW Rabbit skins; [6]): 0
Erythema & Eschar score, Sum (NZW Rabbit skins; [6]): 0
Erythema & Eschar score (NZW Rabbit skins; test sites, intact skin, 24 hour, per animal): 0
Edema score, Average (NZW Rabbit skins; [7]): 0
Edema score, Sum (NZW Rabbit skins; [7]): 0
Erythema & Eschar score, Average (NZW Rabbit skins; [7]): 0
Erythema & Eschar score, Sum (NZW Rabbit skins; [7]): 0
Erythema & Eschar score (NZW Rabbit skins; test sites, intact skin, 72 hour, per animal): 0
degradation by peptidase [1]: almost not degraded
increase of existing contents versus alphaneoendorphin ([1]; HPLC): 5.9±2.1 times
degradation by peptidase [2]: almost not degraded
increase of existing contents versus alphaneoendorphin ([2]; HPLC): 6.1±1.3 times

O=C(O)/C=C/c1ccc(O)c(O)c1 [caffeic acid]
acidification of aqueous solution (change of transparency) [3]: serious acidification

YGGFLRKYPK [alphaneoendorphin]
degradation by peptidase [1]: considerably degraded
degradation by peptidase [2]: considerably degraded
